From patent US20240261308A1, “TREATMENT OF SKIN CONDITIONS USING HIGH KRAFFT TEMPERATURE ANIONIC SURFACTANTS” (ARCUTIS BIOTHERAPEUTICS, INC., priority 2020, published 2024)
Where two headings read alike, the source gives them in different places.

What was measured:
[1] = commonly used anionic surfactants, table values; cited from earlier work
[2] = Krafft temperature determination of dilute aqueous surfactant in a water bath (dissolution and frothing); assay type: physicochemical; settings: 0.012% ceteth-10 phosphate, 0.017% dicetyl phosphate, 0.014% sodium cetostearyl sulfate in distilled water
Description: 0.0012 grams of ceteth-10 phosphate (Moravek Lot 671-144-000-A-20190821-JHO) was weighed into a 20 mL glass scintillation vial. 10.0113 grams of distilled water was added to the scintillation vial and the vial was tightly capped and placed in a water bath. […] The surfactant remained as waxy particles sedimented on the bottom of the vial. After equilibration at 53.0° C. for 435 minutes, ceteth-10 phosphate had dissolved and the sample frothed when shaken. The Krafft temperature of a 0.012% ceteth-10 phosphate aqueous solution was determined to be 53.0° C.
0.0019 grams of dicetyl phosphate (Sigma dihexadecyl phosphate lot STBH2863) was weighed into a 20 mL glass scintillation vial. 11.2262 grams of distilled water was added to the scintillation vial and the vial was tightly capped and placed in a water bath. […] After equilibration at 58.0° C. for 450 minutes, dicetyl phosphate had dissolved and the sample frothed when shaken. The Krafft temperature of a 0.017% dicetyl phosphate aqueous solution was determined to be 58.0° C.
0.0024 grams of sodium cetostearyl sulfate (BASF Lanette E Granules Lot 0021826181) was weighed into a 20 mL glass scintillation vial. 17.0763 grams of distilled water was added to the scintillation vial and the vial was tightly capped and placed in a water bath. […] The Krafft temperature of a 0.014% sodium cetostearyl sulfate aqueous solution was determined to be 41.0° C.

| Compound | Krafft Temperature [1] [°C] | Krafft Temperature [2] [°C] | Krafft Temperature ([2]; listed as ceteth-10 phosphate) [°C] |
| --- | --- | --- | --- |
| CCCCCCCCCCCCOS(=O)(=O)O.N [Ammonium lauryl sulfate (ALS), Ammonium lauryl sulfate] | 10 |  |  |
| CCCCCCCCCCCCCCCCOS(=O)(=O)[O-].[Na+] [Sodium cetyl sulfate] | 45.0 |  |  |
| CCCCCCCCCCOS(=O)(=O)[O-].[Na+] [Sodium decyl sulfate] | 8.0 |  |  |
| CCCCCCCCCCCCCCCCS(=O)(=O)[O-].[Na+] [Sodium hexadecyl sulfonate] | 57.0 |  |  |
| CCCCCCCCCCCCOS(=O)(=O)[O-].[Na+] [Sodium lauryl sulfate (SLS), Sodium lauryl sulfate] | 16.0 |  |  |
| CCCCCCCCCCCCCC(=O)[O-].[Na+] [Sodium myristate] | 39 |  |  |
| CCCCCCCCCCCCCCOS(=O)(=O)[O-].[Na+] [Sodium myristyl sulfate] | 30.0 |  |  |
| CCCCCCCCCCCCCCS(=O)(=O)[O-].[Na+] [Sodium myristyl sulfonate] | 48.0 |  |  |
| CCCCCCCCCCCCCCCC(=O)[O-].[Na+] [Sodium palmitate] | 69 |  |  |
| CCCCCCCCCCCCCCCCCC(=O)[O-].[Na+] [Sodium stearate] | 71 |  |  |
| CCCCCCCCCCCCCCCCCCOS(=O)(=O)[O-].[Na+] [Sodium stearyl sulfate] | 56.0 |  |  |
| Sodium laureth sulfate [Sodium laureth sulfate (SLES)] | <0 |  |  |
| ceteth-10 phosphate [Ceteth - 10 phosphate] |  | 53 | 53 |
